The target in assay [1] is T1, Capsid scaffolding protein (Human cytomegalovirus (strain AD169) (HHV-5) (Human herpesvirus 5), UniProt P16753).
T1 sequence (P16753 whole entry): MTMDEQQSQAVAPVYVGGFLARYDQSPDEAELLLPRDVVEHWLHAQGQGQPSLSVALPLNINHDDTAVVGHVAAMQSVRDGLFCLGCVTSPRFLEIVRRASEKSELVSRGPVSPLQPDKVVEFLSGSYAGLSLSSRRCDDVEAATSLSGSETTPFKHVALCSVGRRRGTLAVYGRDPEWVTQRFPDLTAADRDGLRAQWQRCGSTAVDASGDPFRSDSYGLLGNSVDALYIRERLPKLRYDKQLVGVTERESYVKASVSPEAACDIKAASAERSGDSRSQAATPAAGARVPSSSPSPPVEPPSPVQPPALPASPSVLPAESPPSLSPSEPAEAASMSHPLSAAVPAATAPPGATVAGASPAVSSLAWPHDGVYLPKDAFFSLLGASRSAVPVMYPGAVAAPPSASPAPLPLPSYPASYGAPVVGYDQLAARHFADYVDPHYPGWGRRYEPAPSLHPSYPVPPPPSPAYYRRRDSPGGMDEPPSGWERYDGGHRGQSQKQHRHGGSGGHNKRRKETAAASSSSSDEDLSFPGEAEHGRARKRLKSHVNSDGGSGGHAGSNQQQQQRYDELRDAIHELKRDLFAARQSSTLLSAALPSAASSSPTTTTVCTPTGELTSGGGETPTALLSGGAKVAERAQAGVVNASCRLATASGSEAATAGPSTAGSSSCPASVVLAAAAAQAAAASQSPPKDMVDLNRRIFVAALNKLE
Nature of the assay: Inhibitory activity against cytomegalovirus protease (CMV). It counts as functional.

Assay [2] has as its target T2, Capsid scaffolding protein (Human herpesvirus 2 (strain HG52) (HHV-2) (Human herpes simplex virus2), UniProt P89449).
T2 sequence (P89449 whole entry): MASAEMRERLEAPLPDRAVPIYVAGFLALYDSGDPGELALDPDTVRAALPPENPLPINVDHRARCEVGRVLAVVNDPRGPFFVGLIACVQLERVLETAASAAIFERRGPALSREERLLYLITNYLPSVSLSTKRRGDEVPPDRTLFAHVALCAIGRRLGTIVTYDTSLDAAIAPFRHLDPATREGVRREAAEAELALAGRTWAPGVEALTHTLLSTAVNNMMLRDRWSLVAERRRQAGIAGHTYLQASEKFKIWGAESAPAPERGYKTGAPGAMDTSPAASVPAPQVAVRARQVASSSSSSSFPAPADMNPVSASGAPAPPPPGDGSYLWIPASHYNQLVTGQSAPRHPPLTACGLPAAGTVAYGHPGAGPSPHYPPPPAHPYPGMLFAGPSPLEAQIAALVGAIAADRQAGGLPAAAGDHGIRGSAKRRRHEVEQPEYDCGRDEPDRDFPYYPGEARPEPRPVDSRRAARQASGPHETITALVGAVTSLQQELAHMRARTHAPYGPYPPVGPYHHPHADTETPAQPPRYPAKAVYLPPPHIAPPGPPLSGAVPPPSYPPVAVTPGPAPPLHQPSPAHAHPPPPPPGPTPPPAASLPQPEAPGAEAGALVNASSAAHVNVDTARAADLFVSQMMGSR
Kind of assay: Inhibitory activity against herpes simplex virus protease (HSV-2). It counts as functional, Human alphaherpesvirus 2.

In the next assay the test system is MRC5. Kind of assay: Compound was tested for cytotoxicity in MRC-5 cells using XTT assay. The settings on record: Homo sapiens, read-out: TC50 (the source's name). Format: functional.

Molecules are shown by their SMILES. pIC50: −log10 of the molar value.

The values that follow come from ChEMBL document CHEMBL1132681, “Inhibition of human cytomegalovirus protease by enedione derivatives of thieno[2,3-d]oxazinones through a novel dual acylation/alkylation mechanism” (Bioorg Med Chem Lett, 1999).

Regarding `Cc1csc2nc([C@H](C)NC(=O)CCC(=O)c3cccs3)oc(=O)c12`, the values for the pIC50 in assay [1] and in assay [2] were 4.72 and 5.33, respectively.
In the same order, the values of `Cc1csc2nc([C@H](C)NC(=O)CCC(=O)c3ccccc3)oc(=O)c12` are 4.68 and 4.92.
As for `CCOc1ccc(C(=O)/C=C/C(=O)N[C@@H](C)c2nc3scc(C)c3c(=O)o2)cc1`, the pIC50 is 6.59 in assay [1] and 4.80 in assay [2].
In the same order, the values of `Cc1csc2nc([C@H](C)NC(=O)/C=C/C(=O)c3cccc(C#N)c3)oc(=O)c12` are 7.39 and 5.70.
In the case of `CC(=O)/C=C/C(=O)N[C@@H](C)c1nc2scc(C)c2c(=O)o1`, the pIC50 in assay [1] was 6.43; in assay [2] it was 6.10. Further, in the assay on MRC5, the CC50 is 11000 nM.
As to `Cc1csc2nc([C@H](C)NC(=O)/C=C/C(=O)c3cccc([N+](=O)[O-])c3)oc(=O)c12`, the values for the pIC50 in assay [1] and in assay [2] were 7.51 and 5.52, respectively.
Regarding `Cc1csc2nc([C@H](C)NC(=O)/C=C/C(=O)c3ccccc3[N+](=O)[O-])oc(=O)c12`, the pIC50 in assay [1] is 7.85; in assay [2], 5.66.
Take `Cc1csc2nc([C@H](C)NC(=O)/C=C/C(=O)c3cccs3)oc(=O)c12`: the pIC50 is 7.54 in assay [1] and 5.34 in assay [2]. For the same compound, the CC50 with MRC5 was determined as 2000 nM.
On to `COc1cccc(C(=O)/C=C/C(=O)N[C@@H](C)c2nc3scc(C)c3c(=O)o2)c1`, for which the pIC50 in assay [1] was 7.54; in assay [2], 6.17.
For `Cc1csc2nc([C@H](C)NC(=O)/C=C/C(=O)c3ccccc3)oc(=O)c12`, the results for the pIC50 in assay [1] and in assay [2] were 7.52 and 5.57, respectively. Further, the CC50 in the assay on MRC5 came to 14000 nM.
`Cc1csc2nc([C@H](C)NC(=O)/C=C/C(=O)Nc3ccccc3)oc(=O)c12`: the pIC50 in assay [1] was 5.64; in assay [2], 5.59.
`Cc1csc2nc([C@H](C)NC(=O)/C=C/C(=O)c3ccc(Cl)cc3)oc(=O)c12`: the pIC50 in assay [1] was 7.22; in assay [2], 4.82.
